{
  "source": "patent US20240000811A1",
  "about": "“INOSITOL HEXAKISPHOSPHATE ANALOGUES FOR TREATMENT OF CALCIFICATION ASSOCIATED KIDNEY DISEASES” (INOSITEC AG, priority 2020, published 2024)",
  "key": {"[1]": {"assay": "In-solution screening: CaP precipitation and aggregation in artificial renal tubular fluid (RTF)", "conditions": "9 mM phosphate, 8 mM calcium, 4 h, RT", "method": "An artificial renal tubular fluid (RTF) with a final composition of 0.05 mM oxalate, 0.005 mM sulphate, 408 mM sodium, 424 mM chloride, 0.26 mM potassium, 4 mM magnesium and 0.2 mM citrate in double distilled water was prepared according to a literature report (Fasano, J. M. et al., Kidney Int. 59, 169-178. DOI: 10.1046/j.1523-1755.2001.00477.x, 2001). The solution was filtered with a 0.45-μm syringe filter. Twenty mM Bis-Tris buffer was added to the reported protocol to ensure pH stability throughout experiments and pH was set to 7.2. The artificial RTF was stored at room temperature for up to four months. Stock solutions of 0.25 M phosphate and 1 M calcium were prepared in double distilled water and were stored separately at −20° C.\nTwenty-x final concentration phosphate, 20× final concentration calcium and 10× final concentration compound dilutions were prepared in RTF. Assay mixture consisting of 80% RTF, 10% compound dilution, 5% phosphate dilution and 5% calcium dilution was prepared in Eppendorf tubes as follows. RTF (320 μL) was mixed with 20 μL phosphate dilution (final concentration of 9 mM), 40 μL compound dilution and 20 μL calcium dilution (final concentration of 8 mM). The assay mixture was vortexed after adding each component and 380 μL of the mixture were immediately added to 8-well glass bottom slides and incubated for 4 hat RT. CaP precipitation was assessed using a Leica DM 6000B microscope (Leica Microsystems, Wetzlar, Germany) in brightfield mode. For quantification 3 wells/condition with 3-4 images/well were imaged with a 40× objective. The total area covered with CaP deposits in percentage of the field of view and the mean size of CaP aggregates were determined.\nIn a first step, the influence of selected IP6 analogues (FIG. 3) on CaP precipitation and growth was assessed in vitro using artificial renal tubular fluid (RTF) (Table 1). In a previous study, the inventors investigated CaP protein particle formation in serum. However, an important difference to cardiovascular calcification lies in the extremely low protein content of the renal tubular fluid vs. the high abundance of proteins in blood, which can stabilize amorphous particles. Two cut-offs were chosen for assessing efficacy. First, complete inhibition was defined as a >90% reduction of detected CaP precipitates compared to the control sample without compound."}, "[2]": {"test_system": "RPTEC/TERT 1 human proximal tubule cells", "assay": "Imaging assay: CaP adhesion/deposition and cellular changes on RPTEC monolayers treated with 5/7 mM Ca/P", "format": "cell-based", "conditions": "7 mM phosphate, 5 mM calcium, 24 h", "method": "RPTEC/TERT 1 human proximal tubule cells (RPTEC) were cultured in T75 tissue culture flasks using ProxUp basal medium mixed with ProxUp supplements at 37° C. and 5% CO2 according to manufacturer's recommendations. Cells were used up to passage 30 and regularly tested for Mycoplasma infections. For experiments, RPTEC were cultured in 24-well plates at a seeding density of 150′000 cells/cm^2. Cell viability assessment and cell counting before seeding was performed using an automated cell counter (BioRad TC 20, Hercules, CA, USA).\nFor the comparison of selected IP6 analogues, ProxUp basal medium was prepared with the selected inhibitor and added to each well. Then, CaP precipitation was induced by direct addition of first, phosphate and second, calcium. Final concentrations of 7 mM phosphate and 5 mM calcium were used. Cells were incubated for 24 h at 37° C. and 5% CO2. Spiked medium was removed, and cells were washed twice with PBS before staining.\nFor staining, ProxUp basal medium was mixed with calcein (500 nM final concentration), EthD (6 μM final concentration), CellMask stain ([…]) and Hoechst 33342. Staining mixture was added to RPTEC and cells were incubated for 30 min in the dark at 37° C. and 5% CO2. Staining solution was removed, cells were washed with PBS once and ProxUp basal medium was added. Cells were immediately imaged after staining. Images were obtained by epifluorescence microscopy at 37° C., using a Leica CTR6000 microscope. For quantification 3 wells/condition were prepared and 3 images/well were taken. For preliminary adhesion experiments images were taken with a 10× objective, for the imaging assay 20× objective images were taken.\nMultichannel images were saved as individual channel images in 8-bit tiff format. For analysis Hoechst channel images were thresholded using the triangle threshold. Touching nuclei of the binary image were further segmented using the watershed algorithm with the distance transform of the binary image as input and local maxima thereof as seeds.\nFor EthD channel images, high level of background noise was observed, potentially as a result of fluorescence of the CellMask stain bleeding through. […] A fixed minimum threshold was set at 60. Watershed segmentation similar to the Hoechst channel was performed to segment touching objects. For the calcein channel images adaptive thresholding by triangle thresholding achieved good detection of CaP deposits, which was validated by visual comparison to brightfield channel images. For compound experiments, an additional upper threshold was set to the minimum threshold of the pos.ctrl images for the respective experiment. Thereby an overly insensitive threshold in images with a high amount of CaP deposition was circumvented. The sum of foreground pixels of the binary image was used to calculate the total area of CaP deposits. The skimage label algorithm was used to label touching foreground regions.\nTo segment images to single cells the CellMask channel image was first binarized by adaptive thresholding, using a blocksize of 35, followed by median filtering. Binary erosion was performed to shrink the outlines. A version of watershed algorithm was used to segment the whole image into single cells. To this end, the distance transform of the binary erosion image was used as input image and seeds were set to the local maxima of the Hoechst channel image. While this protocol allowed for an approximation of single cell morphology, further improvements of both analytical and experimental staining procedure would be necessary to achieve more accurate results.\nAdditionally, texture features of calcein and CellMask channel images were extracted. Grey level co-occurrence matrices were calculated using one set offset of 5 pixel and an angle of 90°. Here, the use of larger offsets could improve the detection of changes in large-scale features, e.g. CaP clustering sites. […]"}},
  "data": [
    {"molecule": "O=P(O)(O)OC1[C@@H](OP(=O)(O)O)[C@H](OP(=O)(O)O)C(O)[C@H](OP(=O)(O)O)[C@H]1OP(=O)(O)O", "note": "(stereo partly drawn) [IP5, myo-inositol pentakisphosphate, reference compound]", "values": [
      {"measurement": "concentration at which CaP precipitation was promoted", "setting": "[1]", "value": 30, "unit": "µM"}
    ]},
    {"molecule": "O=P(O)(O)O[C@H]1[C@H](OP(=O)(O)O)[C@@H](OP(=O)(O)O)[C@H](OP(=O)(O)O)[C@@H](OP(=O)(O)O)[C@H]1OP(=O)(O)O", "note": "[IP6, Phytic acid, reference compound]", "values": [
      {"measurement": "concentration at which CaP precipitation was promoted", "setting": "[1]", "value": 10, "unit": "µM"}
    ]},
    {"molecule": "O=S(=O)(O)OC1C(OS(=O)(=O)O)C(OS(=O)(=O)O)C(OS(=O)(=O)O)C(OS(=O)(=O)O)C1OS(=O)(=O)O", "note": "(stereo not drawn) [IS6, myo-inositol hexasulfate, reference compound]", "values": [
      {"measurement": "effect on CaP precipitation / crystallization (in words)", "setting": "[1]", "value": "weak inhibitory properties"}
    ]},
    {"molecule": "COCCOCCO[C@@H]1[C@@H](OP(=O)(O)O)[C@H](OP(=O)(O)O)[C@@H](OP(=O)(O)O)[C@@H](OP(=O)(O)O)[C@H]1OP(=O)(O)O", "note": "[OEG2-IP5]", "values": [
      {"measurement": "concentration for complete inhibition of CaP precipitation (>90% reduction of detected CaP precipitates vs control)", "setting": "[1]", "value": 30, "unit": "µM"},
      {"measurement": "concentration for inhibition of CaP aggregation (>50% reduction of mean size of aggregates vs control)", "setting": "[1]", "value": 1, "unit": "µM"},
      {"measurement": "concentration achieving complete inhibition of CaP adhesion", "setting": "[2]", "value": 50, "unit": "µM"}
    ]},
    {"molecule": "COCCOCCOCCOCCOCCOCCOCCOCCOCCOCCOCCO[C@@H]1[C@@H](OP(=O)(O)O)[C@H](OP(=O)(O)O)[C@@H](OP(=O)(O)O)[C@@H](OP(=O)(O)O)[C@H]1OP(=O)(O)O", "note": "[OEG11-IP5]", "values": [
      {"measurement": "aggregation inhibitory concentration (>50% reduction of mean size of aggregates vs control)", "setting": "[1]", "value": 300, "unit": "nM"},
      {"measurement": "concentration achieving complete inhibition of CaP adhesion", "setting": "[2]", "value": 50, "unit": "µM"}
    ]},
    {"molecule": "cyclohexane hexacarboxylic acid [IC6, reference compound]", "values": [
      {"measurement": "effect on CaP precipitation / crystallization (in words)", "setting": "[1]", "value": "weak inhibitory properties"}
    ]}
  ]
}
